This is an account of results in patent US10544143B2, “4-azaindole compounds” (BRISTOL-MYERS SQUIBB COMPANY, priority 2017, dated 2020).

pIC50: −log10 of the molar value.

Experiment [1] has as its target human TLR7 (Homo sapiens (Human), UniProt Q9NYK1). Put plainly: TLR7 inhibition reporter assay (HEK-Blue SEAP). The format is cell-based. The following applies: HEK-Blue cells overexpressing human TLR7, SEAP reporter, gardiquimod 7.5 μM.
Experiment [2] deals with human TLR8 (Homo sapiens (Human), UniProt Q9NR97). Put plainly: TLR8 inhibition reporter assay (HEK-Blue SEAP).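 Note: SEAP driven by IFN-β minimal promoter carrying NF-κB and AP-1 sites, compounds dosed 0.05 nM to 50 µM for 22 h, inhibition scaled between agonist-plus-DMSO and reference-inhibitor wells.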 The following applies: read-out: TLR8 IC50; HEK-Blue cells overexpressing human TLR8, SEAP reporter, R848 15.9 μM.
Sequence of human TLR8 (Q9NR97 27-1041): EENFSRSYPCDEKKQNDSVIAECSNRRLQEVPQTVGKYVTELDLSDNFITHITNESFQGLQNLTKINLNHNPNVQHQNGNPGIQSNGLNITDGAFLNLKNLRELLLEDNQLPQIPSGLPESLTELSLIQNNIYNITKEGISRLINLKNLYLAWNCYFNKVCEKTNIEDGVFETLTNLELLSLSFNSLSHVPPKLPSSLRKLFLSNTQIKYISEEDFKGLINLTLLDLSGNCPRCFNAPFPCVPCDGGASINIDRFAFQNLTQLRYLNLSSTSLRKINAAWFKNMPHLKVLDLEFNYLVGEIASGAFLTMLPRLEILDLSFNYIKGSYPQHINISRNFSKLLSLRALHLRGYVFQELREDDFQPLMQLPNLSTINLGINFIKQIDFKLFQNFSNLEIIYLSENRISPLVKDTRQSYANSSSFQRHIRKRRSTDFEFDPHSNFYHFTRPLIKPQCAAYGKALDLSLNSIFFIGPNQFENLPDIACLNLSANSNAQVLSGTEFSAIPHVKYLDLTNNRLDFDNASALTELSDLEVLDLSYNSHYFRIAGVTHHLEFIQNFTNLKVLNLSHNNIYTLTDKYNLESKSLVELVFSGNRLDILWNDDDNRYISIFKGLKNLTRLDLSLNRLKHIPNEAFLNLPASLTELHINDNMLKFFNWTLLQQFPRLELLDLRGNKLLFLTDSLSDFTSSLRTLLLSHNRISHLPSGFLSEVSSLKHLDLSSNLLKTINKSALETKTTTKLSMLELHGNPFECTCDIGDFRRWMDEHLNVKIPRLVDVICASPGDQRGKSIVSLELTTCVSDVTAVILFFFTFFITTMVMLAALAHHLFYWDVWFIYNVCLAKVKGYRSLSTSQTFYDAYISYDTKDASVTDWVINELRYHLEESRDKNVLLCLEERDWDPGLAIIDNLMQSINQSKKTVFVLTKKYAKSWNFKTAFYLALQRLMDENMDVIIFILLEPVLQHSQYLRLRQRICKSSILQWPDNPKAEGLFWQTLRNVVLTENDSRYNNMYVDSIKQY
Experiment [3] deals with human TLR9 (Homo sapiens (Human), UniProt Q9NR96). Put plainly: TLR9 inhibition reporter assay (HEK-Blue SEAP).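 Note: SEAP driven by an IFN-β minimal promoter with NF-κB and AP-1 sites, read after 22 h, compounds dosed 0.05 nM–50 µM, inhibition scaled between agonist plus DMSO and reference-inhibitor wells.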 The following applies: read-out: TLR9 IC50; HEK-Blue cells overexpressing human TLR9, SEAP reporter, ODN2006 5 nM.
Sequence of human TLR9 (Q9NR96 26-1032): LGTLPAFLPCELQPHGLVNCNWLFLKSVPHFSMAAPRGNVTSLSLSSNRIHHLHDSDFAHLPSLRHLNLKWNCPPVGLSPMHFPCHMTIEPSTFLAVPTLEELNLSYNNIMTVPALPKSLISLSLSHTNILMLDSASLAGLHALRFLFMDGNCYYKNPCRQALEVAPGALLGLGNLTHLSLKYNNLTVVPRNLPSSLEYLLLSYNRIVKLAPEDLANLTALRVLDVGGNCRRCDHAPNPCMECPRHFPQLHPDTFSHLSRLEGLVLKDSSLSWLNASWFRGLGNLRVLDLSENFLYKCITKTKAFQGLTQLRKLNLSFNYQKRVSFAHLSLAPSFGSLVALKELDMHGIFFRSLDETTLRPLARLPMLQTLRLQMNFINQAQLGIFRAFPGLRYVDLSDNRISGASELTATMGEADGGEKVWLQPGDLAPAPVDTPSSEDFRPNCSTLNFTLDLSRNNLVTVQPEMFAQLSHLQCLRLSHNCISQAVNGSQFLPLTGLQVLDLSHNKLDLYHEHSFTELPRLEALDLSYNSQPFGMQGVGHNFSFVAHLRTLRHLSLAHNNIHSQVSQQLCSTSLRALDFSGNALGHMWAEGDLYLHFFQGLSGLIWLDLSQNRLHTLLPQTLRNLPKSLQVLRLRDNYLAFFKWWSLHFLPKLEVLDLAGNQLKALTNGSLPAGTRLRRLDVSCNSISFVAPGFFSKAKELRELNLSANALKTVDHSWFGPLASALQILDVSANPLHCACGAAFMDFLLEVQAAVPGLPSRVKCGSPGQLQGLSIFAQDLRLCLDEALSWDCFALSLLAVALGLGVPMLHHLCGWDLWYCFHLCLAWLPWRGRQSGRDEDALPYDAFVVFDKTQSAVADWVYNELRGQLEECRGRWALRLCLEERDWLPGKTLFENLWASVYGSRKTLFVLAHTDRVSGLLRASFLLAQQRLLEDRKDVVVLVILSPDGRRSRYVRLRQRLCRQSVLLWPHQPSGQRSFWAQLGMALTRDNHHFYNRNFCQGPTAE

Sequence of human TLR7 (Q9NYK1 27-1049): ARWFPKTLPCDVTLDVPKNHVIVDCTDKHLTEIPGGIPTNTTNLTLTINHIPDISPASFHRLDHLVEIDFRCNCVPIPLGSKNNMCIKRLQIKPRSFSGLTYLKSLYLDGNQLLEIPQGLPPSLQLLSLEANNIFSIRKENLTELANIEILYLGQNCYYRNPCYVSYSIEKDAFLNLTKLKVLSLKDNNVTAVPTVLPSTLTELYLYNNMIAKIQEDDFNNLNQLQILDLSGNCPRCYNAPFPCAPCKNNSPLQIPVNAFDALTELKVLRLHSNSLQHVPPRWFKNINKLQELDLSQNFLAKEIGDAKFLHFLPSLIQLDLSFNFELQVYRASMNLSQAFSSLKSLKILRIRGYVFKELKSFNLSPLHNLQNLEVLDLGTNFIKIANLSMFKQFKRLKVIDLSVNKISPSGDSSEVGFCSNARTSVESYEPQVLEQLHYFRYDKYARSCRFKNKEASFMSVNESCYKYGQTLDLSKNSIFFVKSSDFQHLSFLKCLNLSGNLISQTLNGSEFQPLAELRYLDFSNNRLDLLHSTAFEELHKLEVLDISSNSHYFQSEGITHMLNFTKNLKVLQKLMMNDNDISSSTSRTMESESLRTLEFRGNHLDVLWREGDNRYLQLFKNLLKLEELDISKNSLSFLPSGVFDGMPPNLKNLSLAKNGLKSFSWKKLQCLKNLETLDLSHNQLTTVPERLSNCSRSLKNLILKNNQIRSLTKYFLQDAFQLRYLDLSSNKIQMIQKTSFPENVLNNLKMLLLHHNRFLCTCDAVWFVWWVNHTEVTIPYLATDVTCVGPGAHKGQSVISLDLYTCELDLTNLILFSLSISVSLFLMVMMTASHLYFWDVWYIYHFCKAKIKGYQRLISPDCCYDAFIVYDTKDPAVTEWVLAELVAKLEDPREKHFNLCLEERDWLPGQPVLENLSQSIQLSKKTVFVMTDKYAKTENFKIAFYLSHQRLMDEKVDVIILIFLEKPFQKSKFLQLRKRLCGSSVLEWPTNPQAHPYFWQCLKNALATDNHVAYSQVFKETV

As for `Cc1cc(-c2[nH]c3ccc(C4CN(C5COC5)CCO4)nc3c2C(C)C)cn(C)c1=O` (stereo not drawn) [Example 667], the pIC50 in experiment [1] is 6.84; in experiment [2], 6.15; in experiment [3] it was below 4.30.
The corresponding values for `COc1cc(-c2[nH]c3ccc(C4CN(C(=O)CN(C)C)CCO4)nc3c2C(C)C)cn2ncnc12` (stereo not drawn) [Example 668] are 8.77, 7.66 and 4.76.
The corresponding values for `Cc1cc(-c2[nH]c3ccc(C4CNCCO4)nc3c2C(C)C)cn(C)c1=O` (stereo not drawn) [Example 669] are 8.13, 8.25 and 4.50.
On to `Cc1cc(-c2[nH]c3ccc(C4CN(CC#N)CCO4)nc3c2C(C)C)cn(C)c1=O` (stereo not drawn) [Example 670], for which the pIC50 is 7.25 in experiment [1], 7.24 in experiment [2] and below 4.30 in experiment [3].
For `COc1cc(-c2[nH]c3ccc(C4CNCCO4)nc3c2C(C)C)cn2ncnc12` (stereo not drawn) [Example 671, 2-(3-isopropyl-2-(8-methoxy-[1,2,4]triazolo[1,5-a]pyridin-6-yl)-1H-pyrrolo[3,2-b]pyridin-5-yl)morpholine], the figures for the pIC50 in experiment [1], in experiment [2] and in experiment [3] were 8.85, 8.68 and 5.35, respectively.
Take `COc1cc(-c2[nH]c3ccc(C4CN(C(=O)CCN(C)C)CCO4)nc3c2C(C)C)cn2ncnc12` (stereo not drawn) [Example 672]: the results for the negative logarithm of the IC50 (pIC50) in experiment [1], in experiment [2] and in experiment [3] were 8.33, 7.05 and 5.20, respectively.
With `Cc1c(-c2[nH]c3ccc(C4CN(C)CCO4)nc3c2C(C)C)cn2ncnc2c1C` (stereo not drawn) [Example 673], the pIC50 in experiment [1] was 8.28; in experiment [2], 8.16; in experiment [3], 4.84.
For `Cc1c(-c2[nH]c3ccc(C4CN(CCS(C)(=O)=O)CCO4)nc3c2C(C)C)cn2ncnc2c1C` (stereo not drawn) [Example 674], in that order: 7.49, 7.32 and below 4.30.
Turning to `Cc1cc(-c2[nH]c3ccc(C4CNCCO4)nc3c2C(C)C)cn(C)c1=O` (stereo not drawn) [Example 675], the pIC50 in experiment [1] is 8.01; in experiment [2], 8.34; in experiment [3], 4.84.
Consider `COc1cc(-c2[nH]c3ccc(C4CNCCO4)nc3c2C(C)C)cn2ncnc12` (stereo not drawn) [Example 676], for which the pIC50 in experiment [1] is 9.00; in experiment [2] it was 8.60; in experiment [3] it was 5.24.
For the molecule `Cc1cc(-c2[nH]c3ccc(C4CN(C(=O)CN(C)C)CCO4)nc3c2C(C)C)cn(C)c1=O` (stereo not drawn) [Example 677], the pIC50 was 7.77 in experiment [1], 7.28 in experiment [2] and below 4.30 in experiment [3].
For `Cc1cc(-c2[nH]c3ccc(C4CN(C(C)C)CCO4)nc3c2C(C)C)cn(C)c1=O` (stereo not drawn) [Example 678], in that order: 7.44, 7.54 and below 4.30.
For `Cc1cc(-c2[nH]c3ccc(C4CNCCO4)nc3c2C(C)C)cn(C)c1=O` (stereo not drawn) [Example 679], in that order: 7.80, 8.24 and 4.69.
The corresponding values for `Cc1c(-c2[nH]c3ccc(C4CNCCN4)nc3c2C(C)C)cn2ncnc2c1C` (stereo not drawn) [Example 680, 6-(3-isopropyl-5-(piperazin-2-yl)-1H-pyrrolo[3,2-b]pyridin-2-yl)-7,8-dimethyl-[1,2,4]triazolo[1,5-a]pyridine] are 7.92, 8.28 and 5.98.
`Cc1cc(-c2[nH]c3ccc(CCN4CCCCC4)nc3c2C(C)C)cn2ncnc12` [Example 681]: the pIC50 in experiment [1] is 6.98; in experiment [2], 6.70; in experiment [3], 5.37.
The corresponding values for `COc1cc(-c2[nH]c3ccc(CCN4CCCCC4)nc3c2C(C)C)cn2ncnc12` [Example 682] are 7.80, 7.62 and 5.98.
For `CC(C)c1c(-c2cn(C)c3ncccc23)[nH]c2ccc(CCC3CN(CC(=O)N(C)C)C3)nc12` [Example 683], in that order: 7.92, 7.89 and 6.49.
For `CC(C)c1c(-c2cn(C)c3ncccc23)[nH]c2ccc(CCC3CN(CCS(C)(=O)=O)C3)nc12` [Example 684], in that order: 7.85, 7.89 and 6.44.
For the molecule `Cc1c(-c2[nH]c3ccc(CCC4CN(C(=O)CN(C)C)C4)nc3c2C(C)C)cn2ncnc2c1C` [Example 685], the pIC50 in experiment [1] is 7.49; in experiment [2], 7.41; in experiment [3], 5.80.
For `Cc1c(-c2[nH]c3ccc(CCC4CN(C5COC5)C4)nc3c2C(C)C)cn2ncnc2c1C` [Example 686], the pIC50 was below 5.51 in experiment [1], below 5.51 in experiment [2] and below 4.30 in experiment [3].
Consider `Cc1c(-c2[nH]c3ccc(CCC4CN(C5COC5)C4)nc3c2C(C)C)cn2ncnc2c1C` [Example 687], for which the pIC50 in experiment [1] was 7.41; in experiment [2], 7.80; in experiment [3] it was 5.24.
For `COc1cc(-c2[nH]c3ccc(CCC4CN(CC(=O)N(C)C)C4)nc3c2C(C)C)cn2ncnc12` [Example 689], in that order: 7.96, 7.38 and 6.36.
Consider `CC(C)c1c(-c2cn(C)c3ncccc23)[nH]c2ccc(CCC3CNC3)nc12` [Example 690], for which the pIC50 in experiment [1] was 7.82; in experiment [2] it was 7.51; in experiment [3], 6.54.
The corresponding values for `CC(C)c1c(-c2cn(C)c3ncccc23)[nH]c2ccc(CCC3CN(CC4(C)COC4)C3)nc12` [Example 691] are 7.96, 8.04 and 6.50.
Regarding `Cc1c(-c2[nH]c3ccc(CCC4CNC4)nc3c2C(C)C)cn2ncnc2c1C` [Example 692], the pIC50 was 7.37 in experiment [1], 7.24 in experiment [2] and 5.82 in experiment [3].
Consider `COc1cc(-c2[nH]c3ccc(CCC4CN(CC(C)(C)O)C4)nc3c2C(C)C)cn2ncnc12` [Example 693], for which the figures for the pIC50 in experiment [1], in experiment [2] and in experiment [3] were 8.19, 7.82 and 6.36, respectively.
For `CC(C)c1c(-c2cn(C)c3ncccc23)[nH]c2ccc(CCC3CN(C4COC4)C3)nc12` [Example 694], in that order: 5.64, 5.55 and 4.84.
With `Cc1c(-c2[nH]c3ccc(CCC4CN(CCS(C)(=O)=O)C4)nc3c2C(C)C)cn2ncnc2c1C` [Example 695], the negative logarithm of the IC50 (pIC50) in experiment [1] was 7.38; in experiment [2], 7.70; in experiment [3], 5.40.
For `Cc1c(-c2[nH]c3ccc(CCC4CN(CC(=O)N(C)C)C4)nc3c2C(C)C)cn2ncnc2c1C` [Example 696], in that order: 7.12, 7.44 and 5.88.
The corresponding values for `COc1cc(-c2[nH]c3ccc(CCC4CNC4)nc3c2C(C)C)cn2ncnc12` [Example 697] are 7.70, 6.95 and 6.04.
For `COc1cc(-c2[nH]c3ccc(CCC4CN(CCS(C)(=O)=O)C4)nc3c2C(C)C)cn2ncnc12` [Example 698], the pIC50 in experiment [1] is 7.92; in experiment [2], 7.55; in experiment [3], 6.00.
The corresponding values for `COc1cc(-c2[nH]c3ccc(CCC4CN(C(=O)CN(C)C)C4)nc3c2C(C)C)cn2ncnc12` [Example 699] are 7.92, 7.34 and 6.37.
The corresponding values for `COc1cc(-c2[nH]c3ccc(CCC4CN(C5COC5)C4)nc3c2C(C)C)cn2ncnc12` [Example 700] are 7.59, 7.37 and 5.63.
For `Cc1c(-c2[nH]c3ccc(CCC4CN(CC(C)(C)O)C4)nc3c2C(C)C)cn2ncnc2c1C` [Example 701], in that order: 7.31, 7.82 and 5.76.
`Cc1c(-c2[nH]c3ccc(CCC4CN(CC5(C)COC5)C4)nc3c2C(C)C)cn2ncnc2c1C` [Example 702]: the pIC50 in experiment [1] is 7.39; in experiment [2], 7.85; in experiment [3], 5.65.
Consider `CC(C)c1c(-c2cn(C)c3ncccc23)[nH]c2ccc(CCC3CN(C(=O)CN(C)C)C3)nc12` [Example 703], for which the pIC50 in experiment [1] was 8.05; in experiment [2], 7.80; in experiment [3], 6.49.
The corresponding values for `CC(C)c1c(-c2cn(C)c3ncccc23)[nH]c2ccc(CCC3CN(Cc4c[nH]nn4)C3)nc12` [Example 704] are 7.96, 7.89 and 6.78.
The corresponding values for `Cc1c(-c2[nH]c3ccc(CCC4CN(Cc5c[nH]nn5)C4)nc3c2C(C)C)cn2ncnc2c1C` [Example 705] are 7.74, 7.82 and 6.18.
For `COc1cc(-c2[nH]c3ccc(CCC4CN(CC5(C)COC5)C4)nc3c2C(C)C)cn2ncnc12` [Example 706], in that order: 8.07, 7.74 and 5.99.
In the case of `COc1cc(-c2[nH]c3ccc(C4CCC(NC5CCOCC5)C4)nc3c2C(C)C)cn2ncnc12` (stereo not drawn) [Example 707], the pIC50 is 8.82 in experiment [1], 8.28 in experiment [2] and 5.85 in experiment [3].
Consider `COc1cc(-c2[nH]c3ccc(C4CCC(N(CC(N)=O)CC(N)=O)C4)nc3c2C(C)C)cn2ncnc12` (stereo not drawn) [Example 708], for which the pIC50 in experiment [1] is 7.92; in experiment [2], 6.55; in experiment [3] it was below 4.30.
The corresponding values for `COc1cc(-c2[nH]c3ccc(C4CCC(NCCS(C)(=O)=O)C4)nc3c2C(C)C)cn2ncnc12` (stereo not drawn) [Example 709] are 5.63, below 5.51 and below 4.30.
